Measurements published in patent US5932733A, “3-amino-2-oxo-1-piperidineacetic derivatives containing an arginine mimic as enzyme inhibitors” (Corvas International, Inc., priority 1995, dated 1999).

Legend:
Plasmin = Plasmin (Homo sapiens, UniProt P00747); assay: In vitro enzyme assay for specificity: plasmin; format: biochemical; conditions: 1.0 nM enzyme, 30 min preincubation, pH 7.5; mean of at least two experiments
Description: Plasmin catalytic activity was determined using the chromogenic substrate, S-2251 [D-valyl-L-leucyl-L-lysine-p-nitroanilide], which was obtained from Kabi Diagnostica.

alpha-thrombin = alpha-thrombin (Homo sapiens, UniProt P00734); assay: In vitro enzyme assay for specificity: thrombin amidolytic activity; format: biochemical; conditions: 0.25 nM enzyme, 30 min preincubation, pH 7.5, mean of at least two experiments
Trypsin = molecular target: T1, Trypsin (Bos taurus, UniProt P00760); assay: In vitro enzyme assay for specificity: trypsin; format: biochemical, bovine; conditions: 0.5 nM enzyme, 30 min preincubation, pH 7.5; mean of at least two experiments
T1 sequence (P00760 24-246): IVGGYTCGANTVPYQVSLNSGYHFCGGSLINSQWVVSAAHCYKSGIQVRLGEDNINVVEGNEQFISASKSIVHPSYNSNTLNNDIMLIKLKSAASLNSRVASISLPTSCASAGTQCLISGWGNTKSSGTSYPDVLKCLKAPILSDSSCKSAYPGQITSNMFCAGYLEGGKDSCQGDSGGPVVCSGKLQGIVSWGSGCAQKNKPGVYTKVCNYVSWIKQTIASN
Description: Trypsin catalytic activity was determined using the chromogenic substrate, S-2222 (benzoyl-L-isoleucine-L-glutamic acid- (gamma-methyl ester)-L-arginine-p-nitroanilide), which was obtained from Kabi Diagnostica. […] Purified (3×-crystallized; TRL3) bovine pancreatic trypsin was obtained from Worthington Biochemical Corp. The enzyme was reconstituted in deionized water and diluted into HBSA prior to assay in which the final concentration was 0.5 nM.

Chymotrypsin = Chymotrypsin (Bos taurus, UniProt P00766); assay: In vitro enzyme assay for specificity: chymotrypsin; format: biochemical, bovine; conditions: 1.0 nM enzyme, 30 min preincubation, pH 7.5; mean of at least two experiments
Description: Chymotrypsin catalytic activity was determined using the chromogenic substrate, S-2586 (methoxy-succinyl-L-arginine-L-prolyl-L-tyrosyl-p-nitroanilide), which was obtained from Kabi Diagnostica. […] Purified (3×-crystallized;CDI) bovine pancreatic alpha-chymotrypsin was obtained from Worthington Biochemical Corp. The enzyme was reconstituted in deionized water and diluted into HBSA prior to assay in which the final concentration was 1.0 nM.

rt-PA = molecular target: T2, rt-PA (Homo sapiens, UniProt P00750); assay: In vitro enzyme assay for specificity: recombinant tissue plasminogen activator; format: biochemical; conditions: 1.0 nM enzyme, 30 min preincubation, pH 7.5; mean of at least two experiments
T2 construct: purchased Genentech Inc
T2 sequence (P00750 36-562): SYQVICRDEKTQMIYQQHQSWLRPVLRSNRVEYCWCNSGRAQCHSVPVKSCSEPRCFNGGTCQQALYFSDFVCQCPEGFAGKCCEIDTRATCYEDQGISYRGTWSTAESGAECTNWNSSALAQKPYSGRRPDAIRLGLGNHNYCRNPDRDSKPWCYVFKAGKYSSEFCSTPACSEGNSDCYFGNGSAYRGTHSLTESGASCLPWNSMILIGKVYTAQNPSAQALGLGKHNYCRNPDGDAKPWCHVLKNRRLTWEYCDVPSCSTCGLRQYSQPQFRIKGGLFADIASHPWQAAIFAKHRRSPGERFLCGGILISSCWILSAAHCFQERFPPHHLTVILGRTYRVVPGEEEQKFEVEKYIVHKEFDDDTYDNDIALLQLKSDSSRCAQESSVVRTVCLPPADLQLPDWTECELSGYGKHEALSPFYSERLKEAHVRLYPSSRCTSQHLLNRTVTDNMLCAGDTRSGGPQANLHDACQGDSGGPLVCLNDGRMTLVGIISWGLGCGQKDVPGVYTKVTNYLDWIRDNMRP
Excerpt: Recombinant tissue plasminogen activator (rt-PA)

aPC = molecular target: T3, aPC (Homo sapiens, UniProt P04070); assay: In vitro enzyme assay for specificity: activated protein C; format: biochemical; conditions: 1.0 nM enzyme, 30 min preincubation, pH 7.5; mean of at least two experiments
T3 construct: purchased Hematologic Technologies, Inc
T3 sequence (P04070 43-197 limits assumed): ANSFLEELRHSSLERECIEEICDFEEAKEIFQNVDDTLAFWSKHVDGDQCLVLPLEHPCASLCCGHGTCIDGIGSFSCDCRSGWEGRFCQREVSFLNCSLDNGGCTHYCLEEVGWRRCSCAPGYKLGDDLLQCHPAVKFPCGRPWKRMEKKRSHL
T3 sequence (P04070 212-461 limits assumed): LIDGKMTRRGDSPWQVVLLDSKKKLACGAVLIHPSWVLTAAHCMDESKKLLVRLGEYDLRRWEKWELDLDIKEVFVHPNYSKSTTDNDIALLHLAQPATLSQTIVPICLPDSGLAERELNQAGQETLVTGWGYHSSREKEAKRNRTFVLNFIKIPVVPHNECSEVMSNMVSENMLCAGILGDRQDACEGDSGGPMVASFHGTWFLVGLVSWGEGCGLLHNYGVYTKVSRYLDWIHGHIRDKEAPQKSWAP
Description: Activated Protein C (aPC)
aPC catalytic activity was determined using the chromogenic substrate, Pefachrome PC (delta-carbobenzloxy-D-lysine-L-prolyl-L-arginine-p-nitroanilide), obtained from Pentapharm Ltd.). […] Purified human aPC was obtained from Hematologic Technologies, Inc. The enzyme was diluted into HBSA prior to assay in which the final concentration was 1.0 nM.

rat plasma = assay: Ex vivo anticoagulant effect, activated partial thromboplastin time (APTT) in rat plasma; format: biochemical; conditions: citrated rat plasma; control 19 seconds; mean of two independent determinations
Excerpt: (§1) The control clotting times (0 inhibitor) for rat and human plasma were 19 seconds and 29 seconds, respectively. The concentration of BzlSO2 -norVal(cyclo)-Gly-Ala(3-guanPip)-al which caused a doubling of the control clotting time in rat and human plasma was 12.7 micromolar and 9.1 micromolar, respectively. The data is the mean of two independent determinations.
(§2) Fresh frozen citrated pooled normal human plasma was obtained from George King Biomedical, Overland Park, KA. Pooled normal rat plasma was prepared from citrated whole blood collected from anesthetized rats using standard procedures. The plasma was flash frozen and stored at-80° C. until use. Measurements APTT was made using the Coag-A-Mate RA4 automated coagulometer (General Diagnostics, Organon Technica, Oklahoma City, Okla.) using the Automated APTT reagent (Organon Technica, Durham, N.C.) as the initiator of clotting according to the manufacturers instructions. The assay was conducted by making a series of dilution's of Isomer B in rapidly thawed plasma followed by adding 200 microliters to the wells of the assay carousel.

[1] = tested on: FeCl3-induced platelet-dependent arterial thrombosis; assay: Rat model of FeCl3-induced platelet-dependent arterial thrombosis; format: in vivo; conditions: single i.v. bolus, n=6, saline 6/6
Excerpt: Kurz, K. D., Main, B. W., and Sandusky, G. E., Thromb. […] In this model a platelet-rich, occlusive thrombus is formed in a segment of the rat carotid artery treated locally with a fresh solution of FeCl3 absorbed to a piece of filter paper. The FeCl3 is thought to diffuse into the treated segment of artery and causes de-endothelialization of the affected vessel surface. […] The effect of a test compound on the incidence of occlusive thrombus formation following the application of the FeCl3 is monitored by ultrasonic flowtometry and is used as the primary end point. The use of flowtometry to measure carotid artery blood flow, is a modification of the original procedure in which thermal detection of clot formation was employed. Kurz, K. D., Main, B. W., and Sandusky, G. E., Thromb. […] The animals were prepared, anesthetized with Nembutal followed by the insertion of catheters for blood pressure monitoring, drug and anesthesia delivery. The left carotid artery was isolated by making a midline cervical incision followed by blunt dissection and spreading techniques to separate a 2 cm segment of the vessel from the carotid sheath. A silk suture is inserted under the proximal and distal ends of the isolated vessel to provide clearance for the placement of a ultrasonic flow probe (Transonic) around the proximal end of the vessel. The probe is then secured with a stationary arm. […] The test compound was administered as a single intravenous bolus at the doses outlined in Table 3 after placement of the flow probe and 5 minutes prior to the thrombogenic stimulus.

human plasma = assay: Ex vivo anticoagulant effect, activated partial thromboplastin time (APTT) in human plasma; format: biochemical; conditions: citrated human plasma; control 29 seconds; mean of two independent determinations
Excerpt: as §1, §2

[2] = Markwardt et al. 1972; cited from earlier work
[3] = tested on: trypsin, plasmin and kallikrein; conditions: Markwardt et al. 1972, inhibiting trypsin; cited from earlier work
[4] = literature report; cited from earlier work

Chain of Plasmin (P00747 97-580 limits assumed): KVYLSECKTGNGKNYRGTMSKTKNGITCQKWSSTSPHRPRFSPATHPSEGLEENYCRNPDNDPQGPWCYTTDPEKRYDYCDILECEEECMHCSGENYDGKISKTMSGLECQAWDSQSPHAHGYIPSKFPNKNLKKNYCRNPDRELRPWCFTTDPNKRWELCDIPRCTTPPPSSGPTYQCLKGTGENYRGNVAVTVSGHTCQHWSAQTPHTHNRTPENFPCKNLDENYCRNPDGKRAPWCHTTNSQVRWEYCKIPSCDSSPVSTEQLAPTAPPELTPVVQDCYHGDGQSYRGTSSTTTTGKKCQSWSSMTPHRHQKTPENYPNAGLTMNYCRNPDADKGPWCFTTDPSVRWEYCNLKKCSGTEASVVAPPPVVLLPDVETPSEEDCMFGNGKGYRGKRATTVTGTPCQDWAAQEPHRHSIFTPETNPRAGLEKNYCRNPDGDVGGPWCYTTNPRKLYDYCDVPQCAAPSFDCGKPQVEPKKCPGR
Chain of Plasmin (P00747 581-810 limits assumed): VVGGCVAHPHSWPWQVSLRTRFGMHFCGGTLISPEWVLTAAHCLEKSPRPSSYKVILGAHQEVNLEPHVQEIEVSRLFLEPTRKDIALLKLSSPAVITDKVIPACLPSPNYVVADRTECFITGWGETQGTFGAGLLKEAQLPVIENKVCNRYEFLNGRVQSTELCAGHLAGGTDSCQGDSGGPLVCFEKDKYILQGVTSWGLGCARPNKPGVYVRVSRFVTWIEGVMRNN

IC50 (Plasmin) [nM] | IC50 (Trypsin) [µM] | IC50 (Chymotrypsin) [nM] | IC50 (aPC) [nM] | SMILES | IC50 (alpha-thrombin) [nM] | other results
> 2500 | 34.4 | > 2500 | > 2500 | N=C(N)N1CCCC(C[C@@H](C=O)NC(=O)CN2CCCC[C@H](NS(=O)(=O)Cc3ccccc3)C2=O)C1 (single isomer, unassigned) [D, N-(BnSO2-norLeu(cyclo)-Gly)-3-[3-piperidyl-(N-guanidino)]alaninal] | – | –
> 2500 | 11.2 | > 2500 | > 2500 | N=C(N)N1CCCC(C[C@@H](C=O)NC(=O)CN2CCCC[C@H](NS(=O)(=O)Cc3ccccc3)C2=O)C1 (single isomer, unassigned) [C, N-(BnSO2-norLeu(cyclo)-Gly)-3-[3-piperidyl-(N-guanidino)]alaninal] | – | –
– | – | – | – | N=C(N)N1CCCC(C[C@@H](C=O)NC(=O)CN2CCC[C@H](NS(=O)(=O)Cc3ccccc3)C2=O)C1 (single isomer, unassigned) [Isomer B, benzylsulfonyl-norval(cyclo)-Gly-3-[3-piperidyl-(N-guanidino)]-L-alaninal] | 0.8 | concentration which caused a doubling of the control clotting time (APTT) (rat plasma): 12.7 µM; Incidence of Occlusion ([1]; 0.3 mg/kg): 6/6; Incidence of Occlusion ([1]; 1.0 mg/kg): 4/6; Incidence of Occlusion ([1]; 3.0 mg/kg, * p ≤ 0.05 from saline control by Fishers test): 0/6; concentration which caused a doubling of the control clotting time (APTT) (human plasma): 9.1 µM
– | – | – | – | N=C(N)c1ccc(CC(=O)C(=O)O)cc1 [APPA, 4-amidinophenylpyruvic acid] | – | pharmacokinetics [2]: favourable pharmacokinetics; selectivity of thrombin inhibition [3]: non-selective, inhibiting trypsin, plasmin and kallikrein; toxicity [4]: low toxicity

SMILES | IC50 (Plasmin) [nM] | IC50 (Trypsin) [µM] | IC50 (Chymotrypsin) [nM] | IC50 (aPC) [nM] | IC50 (alpha-thrombin) [nM] | other results
N=C(N)N1CCCC(C[C@@H](C=O)NC(=O)CN2CCC[C@H](NS(=O)(=O)Cc3ccccc3)C2=O)C1 (single isomer, unassigned) [A, benzylsulfonyl-norval(cyclo)-Gly-3-[3-piperidyl-(N-guanidino)]-L-alaninal] | > 2500 | > 25 | > 25000 | > 25000 | 28.8 | IC50 (rt-PA): > 25 µM
